Results published in patent publication US12171229B2, “Heteroaryl-triazole and heteroaryl-tetrazole compounds as pesticides” (BAYER AKTIENGESELLSCHAFT, priority 2018, dated 2024).

Key:
Format in all cases: in vivo
[1] = tested on: Culex quinquefasciatus strain P00; experiment: Culex quinquefasciatus test (CULXFA surface treatment & contact assay); settings: 24 hours after contact, read-out: efficacy (mortality); for mortality at 4 mg/m2: surface concentration 4 mg/m^2, exposure 30 minutes; for mortality at 20 mg/m2: surface concentration 20 mg/m^2, exposure 30 minutes
Outline: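 Compound dissolved in acetone (2 mg/ml) with 2000 ppm rapeseed oil methyl ester, applied to glazed tile and dried; adult C. quinquefasciatus strain P00 exposed to surface for 30 minutes. Mortality (%) scored 24 hours after contact.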

Nezara viridula = Nezara viridula spray test; settings: 96 h, after 4 days, larvae on barley plants
Outline: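 Mortality (%) was assessed at day 4, from 0% (no bugs dead) to 100% (all dead). The spray solution was compound diluted to test concentration in water with 1000 ppm emulsifier and applied to barley carrying southern green stink bug larvae.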

[2] = tested on: cattle ticks (Boophilus microplus) strane Parhurst, SP-resistant; experiment: Boophilus microplus dip test; settings: Rhipicephalus microplus, 168 h, engorged adult female cattle ticks, egg deposition after 7 days, read-out: efficacy (infertile eggs)
Method: Boophilus microplus—Dip Test
Test animal: cattle ticks (Boophilus microplus) strane Parhurst, SP-resistant
Solvent: dimethyl sulfoxide
To produce a suitable preparation of active compound, 10 mg of active compound are dissolved in 0.5 ml solvent, and the concentrate is diluted with water to the desired concentration.
This compound solution is pipetted into tubes. 8-10 engorged, adult, female cattle ticks (Boophilus microplus) are placed in perforated tubes. These tubes are immersed in the aqueous compound solution until the ticks are completely moistened. After the liquid has drained off, the ticks are transferred to a filter paper in a plastic tray and stored in a climate chamber.
After 7 days egg deposition of fertile eggs is monitored. Eggs where fertility is not visible are stored in a climate chamber till hatching after about 42 days. An efficacy of 100% means all eggs are infertile; 0% means all eggs are fertile.

[3] = tested on: Blattella germanica strain PAULINIA; experiment: whole plant or invertebrate; settings: read-out: efficacy (mortality)
Method: Blattella Germanica Test (BLTTGE Surface Treatment & Contact Assay)
Solvent: Aceton+2000 ppm rapeseed oil methyl ester (RME)
In order to produce a sufficient, active ingredient containing solution it is necessary to solve the test compound in the solvent-mix (acetone at 2 mg/ml/RME 2000 ppm). This solution is pipetted onto a glazed tile and after evaporation of the acetone, adult animals of the species Blattella germanica strain PAULINIA are placed onto the dried surface. The exposure time is 30 minutes.
Mortality in percent (%) is determined 24 hours after contact of the insects to the treated surface. 100% mortality means that all tested insects are dead, whereas 0% means that no insect died.

Boophilus microplus = Boophilus microplus injection test; settings: Rhipicephalus microplus, 168 h; 20 μg/animal injected into the abdomen; adult engorged female ticks; egg deposition after 7 days; read-out: efficacy (infertile eggs)
Outline: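 Efficacy, from 0% (all eggs fertile) to 100% (all infertile), was scored on eggs laid by five engorged adult females. Each female was injected intra-abdominally with 1 μl of compound solution in DMSO. Fertile egg laying was checked at 7 days, with uncertain eggs kept until hatching at about 42 days.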

Rhipicephalus sanguineus = Rhipicephalus sanguineus in-vitro contact test, adult brown dog ticks; settings: 5 μg/cm^2 (=500 g/ha), after 48 hours, read-out: efficacy (ticks dead or moribund)
Method: Rhipicephalus Sanguineus—In-Vitro Contact Tests with Adult Brown Doe Ticks
9 mg compound is solved in 1 ml acetone and diluted with acetone to the desired concentration. 250 μl of the test solution is filled in 25 ml glass test tubes and homogeneously distributed on the inner walls by rotation and tilting on a shaking device (2 h at 30 rpm). With a compound concentration of 900 ppm, an inner surface of 44.7 cm^2 and a homogeneous distribution, a dose of 5 μg/cm^2 is achieved.
After the solvent has evaporated, each test tube is filled with 5-10 adult brown dog ticks (Rhipicephalus sanguineus), closed with a perforated lid and incubated in a lying position at room temperature and relative humidity. After 48 hours efficacy is determined. The ticks are patted on the ground of the tubes and are incubated on a heating plate at 45-50° C. for at most 5 minutes. Immotile or uncoordinated moving ticks, which are not able to escape the heat by climbing upwards, are marked as dead or moribund.
An efficacy of 100% means all ticks are dead or moribund; 0% means no ticks are dead or moribund.

Myzus persicae = Myzus persicae spray test; settings: foliar, 120 h, after 5 days, Chinese cabbage leaf disks
Outline: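 Percent kill was recorded 5 days after spraying. Test solutions, prepared with solvent and diluted in 1000 ppm emulsifier water, were applied to Brassica pekinensis leaf disks carrying mixed-instar green peach aphids.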

Meloidogyne incognita = Meloidogyne incognita test; settings: 20 ppm; after 14 days; salad seedlings
Method: Meloidogyne incognita—Test Solvent: 125.0 parts by weight of acetone To produce a suitable preparation of active compound, 1 part by weight of active compound is mixed with the stated amount of solvent, and the concentrate is diluted with water to the desired concentration. Vessels are filled with sand, a solution of the active ingredient, a suspension containing eggs and larvae of the southern root-knot nematode (Meloidogyne incognita) and salad seeds. The salad seeds germinate and the seedlings grow. Galls develop in the roots. After 14 days the nematicidal activity is determined on the basis of the percentage of gall formation. 100% means no galls were found and 0% means the number of galls found on the roots of the treated plants was equal to that in untreated control plants.

Nilaparvata lugens = Nilaparvata lugens spray test; settings: 336 h, after 14 days, rice plants
Method: Nilaparvata lugens—Spray Test
To produce a suitable preparation of active compound, 1 part by weight of active compound is mixed with the stated amount of solvents and is diluted with water, containing an emulsifier concentration of 1000 ppm, to the desired concentration. Further test concentrations are prepared by dilution with emulsifier containing water.
Rice plants (Oryza sativa) are sprayed with a preparation of the active ingredient of the desired concentration and the plants are infested with the brown planthopper (Nilaparvata lugens).
After 14 days mortality in % is determined. 100% means all planthoppers have been killed and 0% means none of the planthoppers have been killed.

CC(c1ncnn1-c1ccc(C#N)cn1)N(CC1CC1)C(=O)c1cc(Cl)cc(C(F)(F)F)c1 (stereo not drawn) [Example I-007]
mortality at 4 mg/m2 [1]: 90 to 100%
mortality at 20 mg/m2 [1]: 90 to 100%
mortality at 100 g/ha (Nezara viridula): 100%
mortality at 500 g/ha (Nezara viridula): 100%
pest or weed control at 100 ppm [2]: 80%
mortality at 20 mg/m2 [3]: 80 to 100%
pest or weed control at 0.02 mg (Boophilus microplus): 100%

C[C@H](NC(=O)c1cc(Cl)cc(C(F)(F)F)c1)c1ncnn1-c1ccc(C#N)cn1 [Example I-009]
mortality at 4 mg/m2 [1]: 90 to 100%
mortality at 500 g/ha (Nezara viridula): 100%
pest or weed control at 100 ppm [2]: 100%
pest or weed control at 0.02 mg (Boophilus microplus): 100%
pest or weed control at 5 µg/cm2 (Rhipicephalus sanguineus): 100%
mortality at 500 g/ha (Myzus persicae): 90%

C[C@H](NC(=O)c1cc(Cl)cc(C(F)(F)F)c1)c1ncnn1-c1ncc(Cl)cc1F [Example I-013]
mortality at 4 mg/m2 [1]: 90 to 100%
mortality at 20 mg/m2 [1]: 90 to 100%
mortality at 500 g/ha (Nezara viridula): 100%
pest or weed control at 100 ppm [2]: 100%
pest or weed control at 0.02 mg (Boophilus microplus): 100%
nematicidal activity (gall formation) (Meloidogyne incognita): 90%
mortality at 100 g/ha (Myzus persicae): 90%
mortality at 500 g/ha (Myzus persicae): 100%

C[C@H](NC(=O)c1cc(Cl)cc(C(F)(F)F)c1)c1ncnn1-c1cc(C#N)ccn1 [Example I-015]
mortality at 4 mg/m2 [1]: 90 to 100%
mortality at 20 mg/m2 [1]: 90 to 100%
mortality at 500 g/ha (Nezara viridula): 100%
pest or weed control at 0.02 mg (Boophilus microplus): 100%
pest or weed control at 5 µg/cm2 (Rhipicephalus sanguineus): 100%
mortality at 100 g/ha (Myzus persicae): 100%
mortality at 500 g/ha (Myzus persicae): 100%

C[C@H](NC(=O)c1cc(F)cc(C#N)c1)c1ncnn1-c1ccc(C#N)cn1 [Example I-018]
mortality at 4 mg/m2 [1]: 90 to 100%
mortality at 20 mg/m2 [1]: 90 to 100%
mortality at 100 g/ha (Nezara viridula): 100%
mortality at 500 g/ha (Nezara viridula): 100%
pest or weed control at 0.02 mg (Boophilus microplus): 100%

C[C@H](NC(=O)c1cc(F)cc(C(F)(F)F)c1)c1ncnn1-c1ccc(C#N)cn1 [Example I-019]
mortality at 4 mg/m2 [1]: 90 to 100%
mortality at 20 mg/m2 [1]: 90 to 100%
mortality at 500 g/ha (Nezara viridula): 90%
pest or weed control at 100 ppm [2]: 100%
pest or weed control at 0.02 mg (Boophilus microplus): 100%

C[C@H](NC(=O)c1cc(Cl)cc(C(F)(F)F)c1)c1ncnn1-c1ccc([N+](=O)[O-])cn1 [Example I-028]
mortality at 4 mg/m2 [1]: 90 to 100%
mortality at 20 mg/m2 [1]: 90 to 100%
mortality at 100 g/ha (Nezara viridula): 100%
mortality at 500 g/ha (Nezara viridula): 100%
pest or weed control at 100 ppm [2]: 100%
pest or weed control at 0.02 mg (Boophilus microplus): 100%

C[C@H](NC(=O)c1cc(Cl)cc(C(F)(F)F)c1)c1ncnn1-c1ccc(NC(=O)C2CC2)cn1 [Example I-034, 3-chloro-N-[(1S)-1-(1-{5-[(cyclopropylcarbonyl)amino]pyridin-2-yl}-1H-1,2,4-triazol-5-yl)ethyl]-5-(trifluoromethyl)benzamide]
mortality at 4 mg/m2 [1]: 90 to 100%
mortality at 20 mg/m2 [1]: 90 to 100%
mortality at 100 g/ha (Nezara viridula): 100%
mortality at 500 g/ha (Nezara viridula): 100%
pest or weed control at 0.02 mg (Boophilus microplus): 100%
mortality at 500 g/ha (Nilaparvata lugens): 100%
mortality at 100 g/ha (Myzus persicae): 100%
mortality at 500 g/ha (Myzus persicae): 100%

C[C@H](NC(=O)c1cc(Cl)cc(OC(F)(F)F)c1)c1ncnn1-c1ccc(C#N)cn1 [Example I-041, 3-chloro-N-{(1S)-1-[1-(5-cyanopyridin-2-yl)-1H-1,2,4-triazol-5-yl]ethyl}-5-(trifluoromethoxy)benzamide]
mortality at 4 mg/m2 [1]: 90 to 100%
mortality at 20 mg/m2 [1]: 90 to 100%
mortality at 100 g/ha (Nezara viridula): 100%
mortality at 500 g/ha (Nezara viridula): 100%
pest or weed control at 100 ppm [2]: 100%
pest or weed control at 0.02 mg (Boophilus microplus): 100%
mortality at 500 g/ha (Nilaparvata lugens): 90%

C[C@H](NC(=O)c1cc(Cl)cc(SC(F)(F)F)c1)c1ncnn1-c1ccc(C#N)cn1 [Example I-042]
mortality at 4 mg/m2 [1]: 90 to 100%
mortality at 20 mg/m2 [1]: 90 to 100%
mortality at 100 g/ha (Nezara viridula): 100%
mortality at 500 g/ha (Nezara viridula): 100%
pest or weed control at 100 ppm [2]: 80%
pest or weed control at 0.02 mg (Boophilus microplus): 100%

C[C@H](NC(=O)c1cc(Cl)cc(Br)c1)c1ncnn1-c1ccc(C#N)cn1 [Example I-046]
mortality at 4 mg/m2 [1]: 90 to 100%
mortality at 20 mg/m2 [1]: 90 to 100%
pest or weed control at 100 ppm [2]: 100%
pest or weed control at 0.02 mg (Boophilus microplus): 100%

C[C@H](NC(=O)c1cc(Cl)cc(Cl)c1)c1ncnn1-c1ccc(C#N)cn1 [Example I-047]
mortality at 4 mg/m2 [1]: 90 to 100%
mortality at 20 mg/m2 [1]: 90 to 100%
mortality at 500 g/ha (Nezara viridula): 100%
pest or weed control at 100 ppm [2]: 100%
pest or weed control at 0.02 mg (Boophilus microplus): 100%

C[C@H](NC(=O)c1cc(Cl)cc(S(F)(F)(F)(F)F)c1)c1ncnn1-c1ccc(C#N)cn1 [Example I-048]
mortality at 4 mg/m2 [1]: 90 to 100%
mortality at 20 mg/m2 [1]: 90 to 100%
mortality at 100 g/ha (Nezara viridula): 100%
mortality at 500 g/ha (Nezara viridula): 100%
pest or weed control at 0.02 mg (Boophilus microplus): 100%
mortality at 500 g/ha (Nilaparvata lugens): 100%

Cc1nc([C@H](C)NC(=O)c2cc(Cl)cc(C(F)(F)F)c2)n(-c2ccc(C#N)cn2)n1 [Example I-049]
mortality at 4 mg/m2 [1]: 90 to 100%
mortality at 20 mg/m2 [1]: 90 to 100%
mortality at 100 g/ha (Nezara viridula): 100%
mortality at 500 g/ha (Nezara viridula): 100%
pest or weed control at 100 ppm [2]: 100%
pest or weed control at 0.02 mg (Boophilus microplus): 100%
mortality at 500 g/ha (Nilaparvata lugens): 100%
pest or weed control at 5 µg/cm2 (Rhipicephalus sanguineus): 100%
mortality at 100 g/ha (Myzus persicae): 100%
mortality at 500 g/ha (Myzus persicae): 90%

C[C@H](NC(=O)c1cc(C(F)(F)F)cc(C(F)(F)F)c1)c1ncnn1-c1ccc(C#N)cn1 [Example I-052]
mortality at 4 mg/m2 [1]: 90 to 100%
mortality at 20 mg/m2 [1]: 90 to 100%
mortality at 100 g/ha (Nezara viridula): 100%
mortality at 500 g/ha (Nezara viridula): 100%
pest or weed control at 0.02 mg (Boophilus microplus): 100%
pest or weed control at 5 µg/cm2 (Rhipicephalus sanguineus): 100%
mortality at 500 g/ha (Myzus persicae): 90%

Cc1nc([C@H](C)NC(=O)c2cc(C(F)(F)F)cc(C(F)(F)F)c2)n(-c2ccc(C#N)cn2)n1 [Example I-056]
mortality at 4 mg/m2 [1]: 90 to 100%
mortality at 20 mg/m2 [1]: 90 to 100%
mortality at 100 g/ha (Nezara viridula): 100%
mortality at 500 g/ha (Nezara viridula): 100%
pest or weed control at 0.02 mg (Boophilus microplus): 100%
pest or weed control at 5 µg/cm2 (Rhipicephalus sanguineus): 100%
mortality at 100 g/ha (Myzus persicae): 100%
mortality at 500 g/ha (Myzus persicae): 90%
